From ChEMBL document CHEMBL1153358, “Amide analogs of antifungal dioxane-triazole derivatives: synthesis and in vitro activities” (Bioorg Med Chem Lett, 2009)
Values after ≈ are worked out from the molar mass of the structure shown.

How the values were obtained:
Assay type in all cases: functional
Candida albicans [1] = test: Antifungal activity against Candida albicans SANK 51486
Aspergillus flavus = test: Antifungal activity against Aspergillus flavus SANK 18497
Cryptococcus neoformans = test: Antifungal activity against Cryptococcus neoformans TIMM 1855
Candida albicans [2] = test: Antifungal activity against fluconazole-resistant Candida albicans TIMM3164
Candida tropicalis = test: Antifungal activity against Candida tropicalis ATCC 750
Aspergillus fumigatus = test: Antifungal activity against Aspergillus fumigatus SANK 10569
Nakaseomyces glabratus = test: Antifungal activity against Candida glabrata ATCC 90030

| SMILES | MIC (Candida albicans [1]) [µg/mL] | MIC (Aspergillus flavus) [µg/mL] | MIC (Cryptococcus neoformans) [µg/mL] | MIC (Candida albicans [2]) [µg/mL] | MIC (Candida tropicalis) [µg/mL] | MIC (Aspergillus fumigatus) [µg/mL] | MIC (Nakaseomyces glabratus) [µg/mL] |
| --- | --- | --- | --- | --- | --- | --- | --- |
| C[C@@H](S[C@H]1CO[C@H](c2ccc(C(=O)Nc3ccc(OCC(F)(F)C(F)F)cc3)cc2)OC1)[C@](O)(Cn1cncn1)c1ccc(F)cc1F | 0.016 (≈ 0.023 µM) | 0.5 (≈ 0.718 µM) | 0.063 (≈ 0.0904 µM) | 0.031 (≈ 0.0445 µM) | 0.125 (≈ 0.179 µM) | 0.125 (≈ 0.179 µM) | > 4 |
| C[C@@H](S[C@H]1CO[C@H](c2ccc(C(=O)Nc3ccncc3)cc2)OC1)[C@](O)(Cn1cncn1)c1ccc(F)cc1F | ≤ 0.008 | 0.25 (≈ 0.44 µM) | 0.125 (≈ 0.22 µM) | 0.031 (≈ 0.0546 µM) | 0.125 (≈ 0.22 µM) | 0.25 (≈ 0.44 µM) | > 4 |
| C[C@@H](S[C@H]1CO[C@H](c2ccc(C(=O)Nc3ccc(Cl)cc3)cc2)OC1)[C@](O)(Cn1cncn1)c1ccc(F)cc1F | ≤ 0.008 | 0.125 (≈ 0.208 µM) | 0.016 (≈ 0.0266 µM) | ≤ 0.008 | 0.016 (≈ 0.0266 µM) | 0.063 (≈ 0.105 µM) | > 4 |
| C[C@@H](S[C@H]1CO[C@H](c2cccc(C(=O)Nc3ccc(C#N)cc3)c2)OC1)[C@](O)(Cn1cncn1)c1ccc(F)cc1F | ≤ 0.008 | > 4 | 1 (≈ 1.69 µM) | 0.25 (≈ 0.423 µM) | 1 (≈ 1.69 µM) | 2 (≈ 3.38 µM) | 2 (≈ 3.38 µM) |
| C[C@@H](S[C@H]1CO[C@H](c2ccc(C(=O)Nc3ccc(O)cc3)cc2)OC1)[C@](O)(Cn1cncn1)c1ccc(F)cc1F | 0.016 (≈ 0.0275 µM) | 1 (≈ 1.72 µM) | 0.25 (≈ 0.429 µM) | 0.063 (≈ 0.108 µM) | 0.25 (≈ 0.429 µM) | 0.5 (≈ 0.858 µM) | > 4 |
| CC(=O)c1ccc(NC(=O)c2ccc([C@H]3OC[C@H](S[C@H](C)[C@](O)(Cn4cncn4)c4ccc(F)cc4F)CO3)cc2)cc1 | ≤ 0.008 | 0.25 (≈ 0.411 µM) | 0.125 (≈ 0.205 µM) | 0.031 (≈ 0.0509 µM) | 0.125 (≈ 0.205 µM) | 0.063 (≈ 0.104 µM) | > 4 |
| C[C@@H](S[C@H]1CO[C@H](c2ccc(C(=O)Nc3ccc(C#N)c(Cl)c3)cc2)OC1)[C@](O)(Cn1cncn1)c1ccc(F)cc1F | ≤ 0.008 | 0.25 (≈ 0.399 µM) | 0.031 (≈ 0.0495 µM) | 0.016 (≈ 0.0256 µM) | 0.063 (≈ 0.101 µM) | 0.125 (≈ 0.2 µM) | 1 (≈ 1.6 µM) |
| C[C@@H](S[C@H]1CO[C@H](c2ccc(C(=O)Nc3ccc(Br)cc3)cc2)OC1)[C@](O)(Cn1cncn1)c1ccc(F)cc1F | ≤ 0.008 | 0.125 (≈ 0.194 µM) | 0.016 (≈ 0.0248 µM) | 0.016 (≈ 0.0248 µM) | ≤ 0.008 | 0.063 (≈ 0.0976 µM) | > 4 |
| C[C@@H](S[C@H]1CO[C@H](/C=C/S(=O)(=O)c2ccc(F)cc2)OC1)[C@](O)(Cn1cncn1)c1ccc(F)cc1F.O=C(O)/C=C\C(=O)O | ≤ 0.008 | > 4 | 0.125 | 0.125 | 0.5 | 4 | 2 |
| C[C@@H](S[C@H]1CO[C@H](c2ccc(C(=O)N3CCOCC3)cc2)OC1)[C@](O)(Cn1cncn1)c1ccc(F)cc1F | 0.063 (≈ 0.112 µM) | > 4 | 0.125 (≈ 0.223 µM) | 0.25 (≈ 0.446 µM) | 1 (≈ 1.78 µM) | 4 (≈ 7.13 µM) | > 4 |
| C[C@@H](S[C@H]1CO[C@H](/C=C/C(=O)c2ccc(F)cc2)OC1)[C@](O)(Cn1cncn1)c1ccc(F)cc1F.O=C(O)/C=C\C(=O)O | ≤ 0.008 | > 4 | 0.125 | 0.125 | 0.5 | 1 | 1 |
| C[C@@H](S[C@H]1CO[C@H](c2ccc(C(=O)Nc3ccc(F)cc3)cc2)OC1)[C@](O)(Cn1cncn1)c1ccc(F)cc1F | ≤ 0.008 | 0.25 (≈ 0.428 µM) | 0.031 (≈ 0.053 µM) | 0.016 (≈ 0.0274 µM) | 0.016 (≈ 0.0274 µM) | 0.125 (≈ 0.214 µM) | 2 (≈ 3.42 µM) |
| C[C@@H](S[C@H]1CO[C@H](/C=C/C(=O)Nc2ccc(F)cc2)OC1)[C@](O)(Cn1cncn1)c1ccc(F)cc1F | < 0.008 | 4 (≈ 7.48 µM) | 0.125 (≈ 0.234 µM) | 0.125 (≈ 0.234 µM) | 0.125 (≈ 0.234 µM) | 0.5 (≈ 0.935 µM) | 4 (≈ 7.48 µM) |
